The source of these data is ChEMBL document CHEMBL3044753, “Polyamines May Modulate Both G Protein-Coupled Receptors and G Proteins” (Med Chem Res, 2004).

For test [1], the system named is Left cardiac atrium. Nature of the test: Negative ionotropic activity in electrically-paced Cavia porcellus (guinea pig) left atrium measured immediately by isometric transducer analysis in presence of AM 251. In kind it is functional, tissue-based.
Test [2] concerns Left cardiac atrium. Kind of test: Negative […] activity in electrically-paced Cavia porcellus (guinea pig) left atrium measured immediately by isometric transducer analysis in presence of benzalkonium/prazosin. In kind it is functional, tissue-based.
The subject of test [3] is Left cardiac atrium. Kind of test: Negative ionotropic activity in electrically-paced Cavia porcellus (guinea pig) left atrium measured immediately by isometric transducer analysis in absence of benzalkonium/prazosin. In kind it is functional, tissue-based.
Test [4] relates to Right cardiac atrium. Kind of test: Negative […] activity in electrically-paced Cavia porcellus (guinea pig) right atrium assessed as effect on rate measured immediately by isometric transducer analysis in presence of benzalkonium/prazosin relative to arecaidine propargyl ester. The test is classed as functional.
The subject of test [5] is Right cardiac atrium. Nature of the test: Negative […] activity in electrically-paced Cavia porcellus (guinea pig) right atrium assessed as effect on rate measured immediately by isometric transducer analysis in absence of benzalkonium/prazosin relative to arecaidine propargyl ester. In kind it is functional.
Test [6] relates to Left cardiac atrium. Kind of test: Negative […] activity in electrically-paced Cavia porcellus (guinea pig) left atrium measured immediately by isometric transducer analysis in presence of prazosin. The test is classed as functional, tissue-based.
The test system of test [7] is Left cardiac atrium. Nature of the test: Negative […] activity in electrically-paced Cavia porcellus (guinea pig) left atrium measured immediately by isometric transducer analysis in presence of bupranolol. In kind it is functional, tissue-based.
Test [8] concerns Left cardiac atrium. Kind of test: Negative […] activity in electrically-paced Cavia porcellus (guinea pig) left atrium measured immediately by isometric transducer analysis in presence of dihydroergocristine. The test is classed as functional, tissue-based.
Test [9] has as its system Left cardiac atrium. Nature of the test: Negative ionotropic activity in electrically-paced Cavia porcellus (guinea pig) left atrium measured immediately by isometric transducer analysis in presence of ANR 83. The test is classed as functional, tissue-based.
The test system of test [10] is Left cardiac atrium. Kind of test: Negative ionotropic activity in electrically-paced Cavia porcellus (guinea pig) left atrium measured immediately by isometric transducer analysis in presence of DPCPX. The test is classed as functional, tissue-based.
In test [11] the test system is Right cardiac atrium. Nature of the test: Negative ionotropic activity in electrically-paced Cavia porcellus (guinea pig) right atrium measured immediately by isometric transducer analysis in presence of methoctramine. In kind it is functional, tissue-based.
Test [12] has as its system Left cardiac atrium. Nature of the test: Negative […] activity in electrically-paced Cavia porcellus (guinea pig) left atrium measured immediately by isometric transducer analysis in presence of methoctramine. The test is classed as functional, tissue-based.
The test system of test [13] is Right cardiac atrium. Kind of test: Negative […] activity in electrically-paced Cavia porcellus (guinea pig) right atrium measured immediately by isometric transducer analysis in presence of benzalkonium. The test is classed as functional, tissue-based.
Test [14] deals with Right cardiac atrium. Kind of test: Negative ionotropic activity in electrically-paced Cavia porcellus (guinea pig) right atrium measured immediately by isometric transducer analysis in presence of pimozide. The test is classed as functional, tissue-based.
Test [15] relates to Left cardiac atrium. Nature of the test: Reversible negative ionotropic activity in electrically-paced Cavia porcellus (guinea pig) left atrium incubated for few seconds followed by compound washout measured after 3 hr by isometric transducer analysis in absence of benzalkonium/prazosin. In kind it is functional, tissue-based.
The test system of test [16] is Right cardiac atrium. Nature of the test: Negative ionotropic activity in electrically-paced Cavia porcellus (guinea pig) right atrium assessed as effect on force measured immediately by isometric transducer analysis in presence of benzalkonium/prazosin relative to arecaidine propargyl ester. In kind it is functional.
In test [17] the test system is Right cardiac atrium. Nature of the test: Negative ionotropic activity in electrically-paced Cavia porcellus (guinea pig) right atrium assessed as effect on force measured immediately by isometric transducer analysis in presence of benzalkonium/prazosin. In kind it is functional, tissue-based.
Test [18] relates to Right cardiac atrium. Nature of the test: Negative ionotropic activity in electrically-paced Cavia porcellus (guinea pig) right atrium assessed as effect on force measured immediately by isometric transducer analysis in absence of benzalkonium/prazosin relative to arecaidine propargyl ester. In kind it is functional.
For test [19], the system named is Right cardiac atrium. Nature of the test: Negative ionotropic activity in electrically-paced Cavia porcellus (guinea pig) right atrium assessed as effect on force measured immediately by isometric transducer analysis in absence of benzalkonium/prazosin. In kind it is functional, tissue-based.

The structures appear in SMILES notation. The source made the active and inactive calls. The rule behind the calls is not given here.

As for `COc1ccccc1CN1CCC(C2CCN(C(=O)CCCCCCC(=O)N3CCC(C4CCN(Cc5ccccc5OC)CC4)CC3)CC2)CC1` [PIPERTRAMINE AMIDE], the outcome in test [1], in [6], in [7], in test [8], in [9] and in test [10] was Active. For the same compound, the result in test [13], in [14] and in test [15] was Active. The EC50 in test [2] was 0.0417 nM; in test [3] it was 0.0316 nM; in test [17], 2.29 nM; in test [19], 1.55 nM. Moreover, the Efficacy is listed as 42% in test [4], 37% in [5], 81% in test [16] and 79% in [18]. Moreover, the outcome in test [11] and in test [12] was inactive.
